Results as given in ChEMBL document CHEMBL6120941, “Discovery of SIRT1-Activating Hydrogen Sulfide Donating Derivatives for Efficient Resistant of Myocardial Ischemic Injury” (J Med Chem, 2024).
Activity calls are given as the source filed them. No cut-off for these calls is given here.

Assays:
H9c2 [1] = assay: Induction of H2S release in rat H9c2 cells incubated for 24 hrs by AzMC probe based analysis; format: functional, cell-based; conditions: dose 1.25-10 µM
Rattus norvegicus [2] = assay: In vivo activation of SIRT1 in myocardial tissue of myocardial ischemia Sprague-Dawley rat model at 10 to 30 mg/kg, IG treated for 7 days consecutively followed by ISO administration daily for 2 days consecutively by Western blot analysis; format: functional, organism-based; conditions: dose 10-30 mg/kg, time 9.0 day
H9c2 [3] = assay: Antioxidant activity against CoCl2-induced cellular hypoxia injury in rat H9c2 cells assessed as increase in hypoxia-reduced SOD level at 5 to 10 uM incubated for 24 hrs; format: functional, cell-based; conditions: dose 5-10 µM
Rattus norvegicus [4] = assay: Cardioprotective activity in myocardial ischemia Sprague-Dawley rat model assessed as myocardial infarction area at 10 mg/kg, IG treated for 7 days consecutively followed by ISO administration daily for 2 days consecutively by TTC staining based analysis (reference value: 32.65 %); format: functional; conditions: time 9 day
H9c2 [5] = assay: Cardioprotective activity against CoCl2-induced cellular hypoxia injury in rat H9c2 cells assessed as preservation of nuclear morphology at 5 to 10 uM incubated for 24 hrs by Hoechst 33258 nuclear staining based analysis; format: functional, cell-based; conditions: dose 5-10 µM
H9c2 [6] = assay: Cardioprotective activity against CoCl2-induced cellular hypoxia injury in rat H9c2 cells assessed as reduction in necrosis at 5 to 10 uM incubated for 24 hrs by flow cytometry; format: functional, cell-based; conditions: dose 5-10 µM
Rattus norvegicus [7] = assay: Cardioprotective activity in myocardial ischemia Sprague-Dawley rat model assessed as myocardial infarction area at 30 mg/kg, IG treated for 7 days consecutively followed by ISO administration daily for 2 days consecutively by TTC staining based analysis (reference value: 32.65 %); format: functional; conditions: time 9 day
H9c2 [8] = assay: Cardioprotective activity against CoCl2-induced cellular hypoxia injury in rat H9c2 cells assessed as mitochondrial membrane potential at 10 uM incubated for 24 hrs by JC-1 staining based analysis (reference value: 48.08 %); format: functional
H9c2 [9] = assay: Cardioprotective activity against CoCl2-induced cellular hypoxia injury in rat H9c2 cells assessed as ROS accumulation at 10 uM incubated for 24 hrs by DCFH-DA probe based analysis (reference value: 28.03 %); format: functional
H9c2 [10] = assay: Cardioprotective activity against CoCl2-induced cellular hypoxia injury in rat H9c2 cells assessed as increase in PGC1-alpha level at 5 to 10 uM incubated for 24 hrs by Western blot analysis; format: functional, cell-based; conditions: dose 5-10 µM
[11] = target: T1, NAD-dependent protein deacetylase sirtuin-1 (Rattus norvegicus) (UniProt A0A0G2JZ79); assay: Activation of SIRT1 in CoCl2-induced cellular hypoxia injury in rat H9c2 cells at 5 to 10 uM incubated for 24 hrs by Western blot analysis; format: cell-based; conditions: filed as activator, dose 5-10 µM
T1 sequence (whole entry): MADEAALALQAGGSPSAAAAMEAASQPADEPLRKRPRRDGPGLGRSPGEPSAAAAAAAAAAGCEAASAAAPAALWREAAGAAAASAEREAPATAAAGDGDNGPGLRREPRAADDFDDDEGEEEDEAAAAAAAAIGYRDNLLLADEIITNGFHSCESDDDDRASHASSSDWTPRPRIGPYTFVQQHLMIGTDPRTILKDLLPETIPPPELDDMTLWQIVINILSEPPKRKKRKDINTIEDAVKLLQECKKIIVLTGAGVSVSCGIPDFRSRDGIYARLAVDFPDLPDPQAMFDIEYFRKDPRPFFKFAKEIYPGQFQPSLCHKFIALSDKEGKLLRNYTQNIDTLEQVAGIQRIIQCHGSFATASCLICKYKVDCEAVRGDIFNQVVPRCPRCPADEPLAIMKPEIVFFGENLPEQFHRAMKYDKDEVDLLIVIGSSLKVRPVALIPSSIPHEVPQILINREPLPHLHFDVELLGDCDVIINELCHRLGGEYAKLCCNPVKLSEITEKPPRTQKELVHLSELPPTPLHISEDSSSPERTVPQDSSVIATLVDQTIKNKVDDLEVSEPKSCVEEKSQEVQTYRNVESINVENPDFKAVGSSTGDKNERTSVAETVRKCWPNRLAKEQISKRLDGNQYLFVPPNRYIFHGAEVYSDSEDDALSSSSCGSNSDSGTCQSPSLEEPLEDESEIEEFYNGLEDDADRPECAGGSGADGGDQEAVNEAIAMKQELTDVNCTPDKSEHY

H9c2 [12] = assay: Cardioprotective activity against CoCl2-induced cellular hypoxia injury in rat H9c2 cells assessed as increase in hypoxia-reduced ATP production in mitochondria at 5 to 10 uM incubated for 24 hrs by bioluminescence assay; format: functional, cell-based; conditions: dose 5-10 µM
Rattus norvegicus [13] = assay: Cardioprotective activity in myocardial ischemia Sprague-Dawley rat model assessed as improvement in positional rearrangement at 10 to 30 mg/kg, IG treated for 7 days consecutively followed by ISO administration daily for 2 days consecutively by H and E/Masson staining based analysis; format: functional, organism-based; conditions: dose 10-30 mg/kg, time 9.0 day
[14] = Induction of H2S release in PBS at pH 7.4 measured upto 60 mins by methylene blue method; format: functional
[15] = target: T2, NAD-dependent protein deacetylase sirtuin-1 (Homo sapiens) (UniProt Q96EB6); assay: Activation of SIRT1 (unknown origin) using RHKK-ac-AMC as substrate incubated for 2 hrs by FDL assay relative to control; conditions: filed as activator
T2 sequence (whole entry): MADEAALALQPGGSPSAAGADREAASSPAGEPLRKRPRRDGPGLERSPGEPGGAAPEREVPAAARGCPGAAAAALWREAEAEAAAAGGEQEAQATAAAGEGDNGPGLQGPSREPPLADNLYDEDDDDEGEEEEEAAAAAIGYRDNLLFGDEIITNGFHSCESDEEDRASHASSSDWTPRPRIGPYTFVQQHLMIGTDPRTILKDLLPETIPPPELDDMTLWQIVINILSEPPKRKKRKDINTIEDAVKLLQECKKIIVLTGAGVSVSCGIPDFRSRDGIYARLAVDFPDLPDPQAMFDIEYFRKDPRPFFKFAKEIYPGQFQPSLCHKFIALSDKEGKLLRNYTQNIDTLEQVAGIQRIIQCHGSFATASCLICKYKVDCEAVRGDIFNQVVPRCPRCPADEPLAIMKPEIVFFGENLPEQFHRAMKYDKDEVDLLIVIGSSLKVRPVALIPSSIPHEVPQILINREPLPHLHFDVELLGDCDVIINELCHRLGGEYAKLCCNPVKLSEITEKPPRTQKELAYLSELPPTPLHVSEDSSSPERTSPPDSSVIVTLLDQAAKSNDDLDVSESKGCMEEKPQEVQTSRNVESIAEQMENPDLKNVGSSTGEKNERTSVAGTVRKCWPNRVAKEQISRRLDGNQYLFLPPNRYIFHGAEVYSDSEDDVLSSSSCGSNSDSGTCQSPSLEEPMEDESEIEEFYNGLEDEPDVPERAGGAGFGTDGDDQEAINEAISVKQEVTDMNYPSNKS

H9c2 [16] = assay: Antioxidant activity against CoCl2-induced cellular hypoxia injury in rat H9c2 cells assessed as increase in hypoxia-reduced GSH level at 5 to 10 uM incubated for 24 hrs; format: functional, cell-based; conditions: dose 5-10 µM
H9c2 [17] = assay: Cardioprotective activity against CoCl2-induced cellular hypoxia injury in rat H9c2 cells assessed as cell viability at 5 uM incubated for 24 hrs by CCK-8 assay (reference value: 51.80 +/- 2.58 %); format: functional; conditions: read-out: Activity

Q: With C=CCSSCCC(=O)O[C@H]1CC[C@]2(C)[C@H]3C[C@@H](O)[C@@H]4[C@@H]([C@]5(C)CC[C@@H](C(C)(C)O)O5)CC[C@@]4(C)[C@]3(C)CC[C@H]2C1(C)C as the compound, how does the Activity (H9c2 [1]) read?
A: The Activity was “Dose-dependent-effect; Exhibited Highest Release Efficiency Among Tested Compounds”.

Q: And the Activity (Rattus norvegicus [2])?
A: Its Activity is “Active”.

Q: What about the Activity (H9c2 [3]) of the same compound?
A: Its Activity is “Active”.

Q: And the Activity (Rattus norvegicus [4])?
A: Its Activity is 12.68%.

Q: What about the Activity (H9c2 [5]) of the same compound?
A: Its Activity is “Active”.

Q: What about the Activity (H9c2 [6]) of the same compound?
A: The Activity was “Active”.

Q: And the Activity (Rattus norvegicus [7])?
A: The Activity was 13.24%.

Q: What about the Activity (H9c2 [8]) of the same compound?
A: Its Activity is 92.84%.

Q: What about the Activity (H9c2 [9]) of the same compound?
A: The Activity was 4.74%.

Q: And the Activity (H9c2 [10])?
A: Its Activity is “Active”.

Q: And the Activity [11]?
A: Its Activity is “Active”.

Q: And the Activity (H9c2 [12])?
A: The Activity was “Active”.

Q: And the Activity (Rattus norvegicus [13])?
A: The Activity was “Active”.

Q: What about the Activity [14] of the same compound?
A: The Activity was 30.7 µM.

Q: And the Activity [15]?
A: The Activity was 177%.

Q: And the Activity (H9c2 [16])?
A: Its Activity is “Active”.

Q: And the viability at 5 µM (H9c2 [17])?
A: Its viability at 5 µM is 94.2%.
